# Several values for one entry are separate records, joined by “and”; a condition that tells them apart may be missing. Identical values can stand only once.
# Key:
# [1] = target: T1, topoisomerase Iα (Homo sapiens, UniProt P11387); assay: Topoisomerase I inhibition, human DNA topoisomerase Elisa kit; type: biochemical; settings: ± SEM
# T1 construct: purchased
# T1 sequence (P11387 1-765): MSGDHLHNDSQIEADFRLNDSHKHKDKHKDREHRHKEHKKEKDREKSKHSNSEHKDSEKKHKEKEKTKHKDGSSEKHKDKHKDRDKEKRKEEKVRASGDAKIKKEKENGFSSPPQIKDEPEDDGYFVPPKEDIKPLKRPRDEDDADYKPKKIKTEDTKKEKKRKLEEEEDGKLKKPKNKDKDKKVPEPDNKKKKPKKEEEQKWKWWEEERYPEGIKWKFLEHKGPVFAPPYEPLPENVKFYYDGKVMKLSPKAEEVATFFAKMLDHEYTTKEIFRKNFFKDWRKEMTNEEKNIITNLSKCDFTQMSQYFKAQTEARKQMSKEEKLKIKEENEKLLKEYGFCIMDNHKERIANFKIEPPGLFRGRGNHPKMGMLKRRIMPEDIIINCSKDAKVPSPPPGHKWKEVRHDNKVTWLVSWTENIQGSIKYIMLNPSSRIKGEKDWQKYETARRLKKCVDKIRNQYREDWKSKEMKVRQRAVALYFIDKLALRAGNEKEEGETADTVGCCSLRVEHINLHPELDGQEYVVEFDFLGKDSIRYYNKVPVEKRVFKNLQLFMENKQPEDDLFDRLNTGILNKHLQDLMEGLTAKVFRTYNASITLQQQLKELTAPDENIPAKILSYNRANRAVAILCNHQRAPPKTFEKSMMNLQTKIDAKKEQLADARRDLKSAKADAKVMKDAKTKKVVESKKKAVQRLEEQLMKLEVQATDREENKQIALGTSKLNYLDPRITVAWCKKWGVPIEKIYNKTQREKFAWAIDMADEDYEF
# Experimental: Two folds of serial dilution was accomplished after standards and the tested compounds were dissolved in sample diluent. Horseradish peroxidase (HRP-avidin) and biotin-conjugated antibody were diluted 10 times each. Each well received 100 µL of each concentration of the standard or test chemicals, which were then added and incubated at 37 °C for 60 min. […] The microtiter plate was rinsed three times and given room to aspirate. After that, the plate was incubated at 37 °C for 60 min with 100 µL of HRP-avidin solution added to each well. After that, the plate was aspirated and cleaned 5 times. Each well received 90 µL of TMB substrate, and the plate was incubated for 30 min. at 37 °C in a light-protected environment. Finally, stop solution (50 µL) was loaded, and within 5 min, the absorbance at 450 nm was measured spectrophotometrically.
# Topoisomerase enzyme assay
# Topoisomerase I and II inhibitory activity […]
# topoisomerase IIβ inhibitory activity utilizing the human DNA topoisomerase Elisa kit.
# Standards and the tested compound were dissolved in sample diluent and 2 folds serial dilution was achieved. Biotin-conjugated antibody and avidin conjugated Horseradish Peroxidase (HRP-avidin) were diluted to 10 folds. 100 μL of each concentration of standard or test compound were added to each well. Incubate at 37 °C for 1 h. The liquid in each well was removed. 10 0 μL of Biotin-conjugated antibody solution was added to each well followed by incubation for 1 h at 37 °C. The microtiter plate was allowed to aspirate and washed 3 times. 100 μL of avidin conjugated Horseradish Peroxidase (HRP -avidin) solution was added to each well and the plate was incubated for 1 h at 37 °C. The plate was aspirated and washed 5 times. 90 μL of TMB substrate were added to each well and the plate was incubated for 30 min at 37 °C and protected from light. 50 μL stop so lution was added. The absorbance was measured spectrophotometrically within 5 min at 450 nm .
# [2] = system: normal cell line WI 38; assay: MTT cytotoxicity assay on normal cells; type: cell-based; settings: Homo sapiens; normal cell line WI 38, MTT assay, ± SEM; read-out: IC50 W138 normal cell line (µM ± SEM)
# Experimental: After 24 h of culture incubation and supernatants discarded. […] Each test should include a blank containing complete medium without cells. […] Add reconstituted MTT in an amount equal to 10% of the culture medium volume. […] Spectrophotometrically absorbance was measured at a wavelength of 570 nm. […] Results from all experiments were recorded and the percentage of viable cells was calculated.
# [3] = system: Bax; assay: Western blot of protein expression in LOX IMVI cells; type: cell-based, human; settings: control = 1
# Experimental: (§1) To evaluate the expression level of the apoptosis modulatory markers Bax, caspase 3 and PARP-1, western blot was performed as formerly described. Three different groups of LOX IMVI cells were permitted to grow to reach 70–80% confluence in […] flasks. The first group of LOX IMVI cells was treated with compound 3i. […] The media was taken out after 48 h, and cells underwent three rounds of ice-cold PBS washing. RIPA lysis buffer [consisting of Tris-HCl pH 7.6 (25 mM), NaCl (150 mM), EDTA (5 mM), NP-40 or Triton X-100 (1%), sodium deoxycholate (1%), SDS1 (1%)] with the proper phosphatase and a protease inhibitor was used to create the whole-cell lysate for 30 min. After centrifuging the mixture at 12,000 rpm for 20 min and sonicating it for five minutes, the supernatant was collected, split into aliquots, and kept at -80 °C. The Biuret method was used to determine protein content[27],[28]. Proteins in each matched cell lysate were denatured in 2 Laemmli buffer containing 5% β--mercaptoethanol at 95 °C for 5 min. For SDS-PAGE electrophoresis, 20 µg of protein per lane were loaded at 100 volts through a 6% stacking gel, then at 125 volts through a 10% resolving gel for around 2 h, and then transferred to a PVDF membrane using a semidry transfer apparatus (made by Cleaver Scientific) for 25 min. The PVDF membrane was first incubated for one hour at 4 °C in TBS buffer containing 0.1% Tween (TBST) and 5% fat-free milk, then overnight at 4 °C with monoclonal anti-Bax, anti-PARP-1, and anti-caspase-3 as primary antibodies (Cell Signalling Technology) at a dilution of 1:500. Membranes were first treated overnight, then three times washed in TBST buffer, then incubated at room temperature for 60 min with the corresponding HRP (horse radish peroxidase)-linked secondary antibodies (Dako). Then the substrate for the chemiluminescent Western ECL (Perkin Elmer, Waltham, MA) was added to the blot as described by the manufacturer by incubating the membranes with equal volumes of ECL solution A and ECL solution B for 1 min.
# [4] = system: PARP-1; assay: as above; type: cell-based, human; settings: control = 1
# Experimental: as §1
# [5] = system: active caspase-3; assay: as above; type: cell-based, human; settings: control = 1
# Experimental: as §1
SMILES,IC50 [1],IC50 [2],Bax OD [3],PARP-1 OD [4],Caspace-3 Optical density (OD) [5]
"O=C(O)c1cn(C2CC2)c2cc(N3CCN(C(=O)CCCN4C(=O)CSC4=O)CC3)c(F)cc2c1=O [3 L, 1-Cyclopropyl-7-(4-(4-(2,4-dioxothiazolidin-3-yl)butanoyl)piperazin-1-yl)-6-fluoro-4-oxo-1,4-dihydroquinoline-3-carboxylic acid]",18.8 ± 1.02 µM,–,–,–,–
"O=C(O)c1cn(C2CC2)c2cc(N3CCN(C(=O)CCCN4C(=O)SC(=Cc5ccccc5)C4=O)CC3)c(F)cc2c1=O [3a, 7-[4-[4-[5-benzylidene-2,4-dioxo-thiazolidin-3-yl]butanoyl]piperazin-1-yl]-1-cyclopropyl-6-fluoro-4-oxo-quinoline-3-carboxylic acid]",14.5 ± 0.79 µM,–,–,–,–
O=C(O)c1cn(C2CC2)c2cc(N3CCN(C(=O)CCCN4C(=O)S/C(=C\c5ccc(F)cc5)C4=O)CC3)c(F)cc2c1=O [3i],4.8 µM and 4.77 µM,45.1 ± 2.43 µM,4.13,0.87,3.14
"O=C(O)c1cn(C2CC2)c2cc(N3CCN(C(=O)CCCN4C(=O)SC(=Cc5cccc6ccccc56)C4=O)CC3)c(F)cc2c1=O [3j, 1-cyclopropyl-6-fluoro-7-[4-[4-[5-(1-naphthylmethylene)-2,4-dioxo-thiazolidin-3-yl]butanoyl]piperazin-1-yl]-4-oxo-quinoline-3-carboxylic acid]",23.5 ± 1.28 µM,–,–,–,–
O=C(O)c1cn(C2CC2)c2cc(N3CCN(C(=O)CCCN4C(=O)S/C(=C\c5ccc([N+](=O)[O-])cc5)C4=O)CC3)c(F)cc2c1=O [3k],36.6 ± 1.99 µM,–,–,–,–
